In US20090181975A1, “NEBIVOLOL IN THE TREATMENT OF SEXUAL DYSFUNCTION” (FOREST LABORATORIES HOLDINGS LIMITED, priority 2008, published 2009):
Values belong to the compound of their own block, whether it stands above or below them.

Experiments:
[1] = test system: spontaneous hypertensive rats; details: acute; cited from earlier work
[2] = test system: human penile resistance arteries (HPRA); assay: Relaxation of human penile resistance arteries contracted with U46619 (myograph); type: cell-based; set-up: effect on endothelium-dependent relaxation of HPRA caused by acetylcholine / effect on sildenafil-mediated relaxation of HPRA: unit of the concentration uncertain; details: for effect on endothelium-dependent relaxation of HPRA caused by acetylcholine: metoprolol (1 (unit uncertain)), nebivolol (0.3 (unit uncertain))
Protocol: Specimens of human corpus cavernosum were obtained from organ donors and from impotent men at the time of penile prosthesis implantation. Tissues were placed in ice-cold M-400 solution (pH 7.4; 400 mOsm/kg, composition in w/v: 4.19% manitol, 0.2% KH2PO4, 0.97% K2HPO4.3H2O, 0.11% KCl and 0.08% NaHCO3) at the time of removal and transported to the laboratory for utilization within 16 h.
To determine the resistance of penile small arteries, helicine arteries (lumen diameter 150-400 μm) which are the terminal branches of deep penile arteries, were dissected by carefully removing the adhering trabecular tissue, and arterial ring segments (2 mm long) were subsequently mounted on two 40 μm wires on microvascular double Halpern-Mulvany myographs (J.P. Trading, Aarhus, Denmark) for isometric tension recordings. The chambers were filled with PSS continuously bubbled with 95% O2/5% CO2 mixture to maintain a pH of 7.4. […]

diabetic rats = assay: Glycemia, arterial pressure and heart rate in STZ-diabetic rats after 10 days s.c. treatment; type: in vivo, rat (Sprague-Dawley); details: 3 or 10 mg/kg/day s.c. for 10 days
Protocol: Male Sprague-Dawley rats were used as a model for this study. Diabetes was induced by a single injection of streptozotocin (STZ, 60 mg/kg; i.p.) dissolved in 0.1 M citric acid/trisodic citrate buffer (pH 4-4.5) and was assessed by glycemia determination 72 h after induction. Animals were kept, with free access to food and water, for 8 weeks before experimental assays. Eight weeks after induction of diabetes, rats show reduced erectile responses (Angulo et al., Naunyn-Schmiedeberg's Arch Pharmacol, 358(5), 529-37, 1998; Angulo et al., J. Sex Med., 2, 341-346, 2005). Blood glucose concentration was determined each week and just before the experiment. Insulin levels were not determined. […] After this period of treatment, the diabetic rats were anesthetized and ICP responses to electrical stimulation were evaluated. After an equilibration period, the PDE5 inhibitor sildenafil (0.3 mg/kg) or the vehicle (25% glycofurol) was intravenously administered. Forty five minutes later, ICP responses were again determined

anesthetized rats [3] = assay: Erectile responses: intracavernosal pressure (ICP) increases to cavernosal nerve electrical stimulation; type: in vivo, rat (Sprague-Dawley); details: 3 mg/kg i.v.
Protocol: The effects of nebivolol administration on rat erectile function were studied. Erectile responses in rats were evaluated by measuring intracavernosal pressure (ICP) increases to cavernosal nerve electrical stimulation. To measure ICP, rats (Sprague-Dawley) were anesthetized with ketolar and diazepam. The surgical procedure included dissection and isolation of the right cavernous nerve through an abdominal midline incision and exposure of penile crura through a transverse perineal incision. ICP measurements were permitted by insertion of a 23-gauge needle into the right crus. The right carotid artery and left external jugular vein were catheterized for constant blood pressure measurement and saline infusion, respectively. Electrostimulation was performed with a delicate platinum bipolar hook electrode connected to a stimulator and current amplifier. Parameters of electrical stimulation included pulses with a duration of 0.3 ms and 1.5 mA of current intensity for 1 min. Frequency-response curves were performed by applying stimulation at 1, 3 and 10 Hz with a lapse of 3 min between each increase of frequency.

anesthetized rats [4] = assay: Mean arterial pressure (MAP) and heart rate (HR) in anesthetized rats; type: in vivo, rat (Sprague-Dawley)
Protocol: To determine blood pressure and heart rate, Sprague-Dawley rats (250-400 g) were anesthetized with ketolar and diazepam. The right carotid artery was catheterized for constant blood pressure and heart rate measurement by means of a pressure transducer connected to a PowerLab data acquisition system (ADInstruments). The left external jugular vein was catheterized for saline or drug infusion. 3 mg/kg nebivolol (n=6) or vehicle (50% glycofurol; n=4) was administered intravenously in anesthetized rats and MAP and HR were measured. […] The effect of nebivolol in combination with the type 5 phosphodiesterase (PDE-5) inhibitor sildenafil on hypotension and heart rate was studied in rats using the methods described above.

anaesthetized dogs = details: cited from earlier work
cGMP in rat plasma = assay: Plasma cGMP content by ELISA; type: in vivo, rat (Sprague-Dawley)
Protocol: To determine the plasma cGMP content, Sprague-Dawley rats were anesthetized with urethane (1.25 g/kg). The right carotid artery was catheterized for constant blood pressure and heart rate measurement by means of a pressure transducer connected to a PowerLab data acquisition system (ADInstruments). The left external jugular vein was catheterized for saline or drug infusion. After administering the respective treatments, rat plasma samples were collected, immediately frozen and stored at −80° C. until extraction for cyclic nucleotide assay. cGMP was determined by ELISA using a kit from Cayman Chemical Co. Plasmatic cGMP levels were determined 10 minutes after nebivolol administration.

[5] = test system: thiobarbituric acid reactive substances (TBARS) in rat serum; assay: Serum TBARS in STZ-diabetic rats; type: in vivo, rat (Sprague-Dawley); details: for effect on TBARS levels in diabetic rats: groups with and without sildenafil pooled
Protocol: Male Sprague-Dawley rats were used as a model for this study. Diabetes was induced by a single injection of streptozotocin (STZ, 60 mg/kg; i.p.) dissolved in 0.1 M citric acid/trisodic citrate buffer (pH 4-4.5) and was assessed by glycemia determination 72 h after induction. Animals were kept, with free access to food and water, for 8 weeks before experimental assays. Eight weeks after induction of diabetes, rats show altered in vivo vascular function (Angulo et al., Naunyn-Schmiedeberg's Arch Pharmacol, 358(5), 529-37, 1998) and reduced erectile responses (Angulo et al., J. Sex Med., 2, 341-346, 2005). Blood glucose concentration was determined each week and just before the experiment. Insulin levels were not determined. Blood was collected from the right ventricle, clotted in gel and centrifuged at 1500×g to obtain serum. Thiobarbituric acid reactive substances (TBARS) were determined by reacting thiobarbituric acid with serum samples at 70° C. for 30 min and reading absorbance at 532 nm. Serum concentrations of TBARS were determined by using malondialdehyde (MDA) as a standard. […] Results were expressed as ng/ml of MDA equivalents. […] After 10 days treatment, diabetic rats were anesthetized and erectile responses to cavernosal nerve electrical stimulation (CNES) were determined. After an equilibration period, the PDE-5 inhibitor sildenafil (0.3 mg/kg) or the vehicle (25% glycofurol) was intravenously administered. Forty five minutes later, erectile responses to CNES were again evaluated, and 5 min after CNES application, blood was collected for obtaining plasma and serum, and the penis was excised. Serum samples were immediately frozen until determinations of NOx and TBARS. Plasma and penile tissues were immediately frozen until determinations of cGMP.

[6] = 3 mg/kg i.v., vs vehicle (50% glycofurol)
[7] = nebivolol 1 mg/kg i.v., pre-treatment sildenafil 0.3 mg/kg i.v.
[8] = nebivolol 3 mg/kg i.v., L-NAME 3 mg/kg, ODQ 1 mg/kg, propranolol 1 mg/kg, sildenafil 0.3 mg/kg i.v.

EC50 ([2]; Homo sapiens, nebivolol 1 nM to 10 μM, read-out: EC50, endothelium-dependent vasodilation of HPRA): 0.0244 µM
SMILES: OC(CNCC(O)C1CCc2cc(F)ccc2O1)C1CCc2cc(F)ccc2O1 (racemic) [nebivolol, α,α′-iminobis(methylene)bis[6-fluoro-2-chromanmethanol]]
effect on blood pressure [1]: acutely lowers blood pressure
Emax ([2]; Homo sapiens, nebivolol 1 nM to 10 μM, read-out: Emax, endothelium-dependent vasodilation of HPRA): 59.1 ± 10.3%
relaxation of HPRA compared with metoprolol or atenolol ([2]; U46619 30-100 nM): significantly more potent than those caused by metoprolol or atenolol
relaxation of HPRA by cumulative addition ([2]; U46619 30-100 nM, 1 nM to 0.1 mM): marked relaxations
effect on endothelium-dependent relaxation of HPRA caused by acetylcholine ([2]; atenolol (1 (unit uncertain))): not affected
effect on sildenafil-mediated relaxation of HPRA ([2]; nebivolol (1 (unit uncertain)), atenolol (1 (unit uncertain))): able to enhance
effect on arterial pressure in diabetic rats (diabetic rats): Neither diabetes nor either drug treatment (nebivolol or atenolol) significantly affected
effect on heart rate in diabetic rats (diabetic rats): further reduced
effect on erectile responses to CNES (anesthetized rats [3]): significantly potentiated
AUC of ICP at 3 Hz (anesthetized rats [3]; control 1612±294, p<0.05): 2544±440 mmHg×s
effect on blood pressure (anesthetized rats [4]; 1 mg/kg i.v.): hypotensive and bradycardic effects of moderate intensity
effect on heart rate (anesthetized rats [4]; 1 mg/kg i.v.): hypotensive and bradycardic effects of moderate intensity
effect on heart rate (HR) (anesthetized rats [4]; [6]): significant reduction of heart rate
effect on mean arterial pressure (MAP) (anesthetized rats [4]; [6]): significant hypotensive effect
effect on stroke volume (anaesthetized dogs): augments stroke volume
effect on total peripheral vascular resistance (anaesthetized dogs): decreases total peripheral vascular resistance
increase in plasma cGMP levels (cGMP in rat plasma; 3 mg/kg i.v., 10 minutes after administration, percentage of cGMP concentration before administration (FIG. 15)): 177±38%
interaction with sildenafil on plasma cGMP levels (cGMP in rat plasma; combination of sildenafil and nebivolol): synergistically increases plasma cGMP levels
plasma cGMP levels after combined administration with sildenafil (cGMP in rat plasma; nebivolol 3 mg/kg + sildenafil 0.3 mg/kg i.v.): marked increase of cGMP levels
plasma cGMP levels after combining sildenafil with nebivolol, dose-dependent (cGMP in rat plasma; nebivolol 1 and 3 mg/kg + sildenafil 0.3 mg/kg i.v.): significant further increase
effect on TBARS levels in diabetic rats ([5]; 10 mg/kg/day for 10 days): significant reduction
effect on TBARS levels in diabetic rats ([5]; administered for 10 days): trend to reduce

SMILES: CC(C)NCC(O)COc1ccc(CC(N)=O)cc1 (centres unmarked) [atenolol]
effect on endothelium-dependent relaxation of HPRA caused by acetylcholine ([2]; atenolol (1 (unit uncertain))): not affected
effect on arterial pressure in diabetic rats (diabetic rats): Neither diabetes nor either drug treatment (nebivolol or atenolol) significantly affected
effect on heart rate in diabetic rats (diabetic rats): further reduced

SMILES: CCCc1nn(C)c2c(=O)[nH]c(-c3cc(S(=O)(=O)N4CCN(C)CC4)ccc3OCC)nc12 [sildenafil]
effect on blood pressure drop caused by nebivolol (anesthetized rats [4]; [7]): significantly enhanced
effect on reduction of heart rate caused by nebivolol (anesthetized rats [4]; [7]): not modified
effect on heart rate reduction caused by nebivolol (anesthetized rats [4]; [8]): did not significantly alter
effect on hypotension caused by nebivolol (anesthetized rats [4]; [8]): did not significantly alter
effect on plasma cGMP levels (cGMP in rat plasma; i.v.: atenolol 3 mg/kg, sildenafil 0.3 mg/kg, sodium nitroprusside 0.1 mg/kg): augmented cGMP up to similar levels than nebivolol
influence on serum TBARS levels ([5]; sildenafil 0.3 mg/kg i.v.): did not significantly influence
